Test results: PMC8706783 (Pharmaceutics, 2021)

Assays:
[1] = Reaction phenotyping, HLM with NADPH; type: in vitro ADME, human; details: human, human liver microsomes, pH 7.4; HLM (Phase 1), Midazolam (1 µM); read-out: Known Substrate (% Remaining at 60 min)
CYP3A4 = CYP3A4 (Homo sapiens, UniProt P08684); assay: Reaction phenotyping, rCYP3A4; details: recombinant enzyme, pH 7.4
CYP1A1 = biological target: T1, CYP1A1 (Homo sapiens, UniProt P04798); assay: Enzyme inhibition assay, CYP1A1; type: in vitro ADME; set-up: purchased Xenotech LLC; details: Recombinant CYP1A1; phenacetin-O-deethylation
T1 sequence (P04798 1-512): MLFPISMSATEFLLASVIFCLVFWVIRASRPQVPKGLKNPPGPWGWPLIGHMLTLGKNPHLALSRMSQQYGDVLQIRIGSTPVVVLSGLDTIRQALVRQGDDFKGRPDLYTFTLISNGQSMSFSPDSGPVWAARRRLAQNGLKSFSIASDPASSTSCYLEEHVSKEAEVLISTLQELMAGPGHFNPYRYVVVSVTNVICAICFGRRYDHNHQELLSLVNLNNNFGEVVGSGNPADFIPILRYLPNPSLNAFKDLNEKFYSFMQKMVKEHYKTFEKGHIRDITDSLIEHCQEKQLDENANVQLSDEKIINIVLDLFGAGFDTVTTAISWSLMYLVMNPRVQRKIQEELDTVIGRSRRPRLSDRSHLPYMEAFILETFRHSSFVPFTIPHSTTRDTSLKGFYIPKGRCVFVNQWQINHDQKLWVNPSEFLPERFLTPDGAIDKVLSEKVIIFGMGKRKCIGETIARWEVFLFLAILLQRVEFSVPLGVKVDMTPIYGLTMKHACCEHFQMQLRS

CYP2C19 = CYP2C19 (Homo sapiens, UniProt P33261); assay: Enzyme inhibition assay, CYP2C19; details: HLM; CYP2C19 S-mephenytoin 4′-hydroxylation
Sequence of CYP2C19 (P33261 whole entry): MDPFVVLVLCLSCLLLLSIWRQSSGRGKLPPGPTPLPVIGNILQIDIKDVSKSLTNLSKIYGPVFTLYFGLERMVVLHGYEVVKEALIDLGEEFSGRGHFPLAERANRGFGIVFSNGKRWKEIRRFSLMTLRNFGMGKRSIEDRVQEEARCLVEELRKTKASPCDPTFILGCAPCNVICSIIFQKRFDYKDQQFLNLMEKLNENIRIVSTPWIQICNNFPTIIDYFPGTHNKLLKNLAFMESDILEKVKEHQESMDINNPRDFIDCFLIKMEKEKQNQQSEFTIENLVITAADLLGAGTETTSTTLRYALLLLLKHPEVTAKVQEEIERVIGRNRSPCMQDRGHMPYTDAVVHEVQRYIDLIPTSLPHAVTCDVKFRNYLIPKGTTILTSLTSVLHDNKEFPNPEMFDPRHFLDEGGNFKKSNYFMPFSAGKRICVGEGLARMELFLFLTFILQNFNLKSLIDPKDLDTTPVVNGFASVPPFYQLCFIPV

UGT1A9 = biological target: T2, UGT1A9 (Homo sapiens, UniProt O60656); assay: Enzyme inhibition assay, UGT1A9; type: in vitro ADME; set-up: from tissue; details: HLM; UGT1A9 mycophenolic acid glucuronidation
T2 sequence (O60656 26-530): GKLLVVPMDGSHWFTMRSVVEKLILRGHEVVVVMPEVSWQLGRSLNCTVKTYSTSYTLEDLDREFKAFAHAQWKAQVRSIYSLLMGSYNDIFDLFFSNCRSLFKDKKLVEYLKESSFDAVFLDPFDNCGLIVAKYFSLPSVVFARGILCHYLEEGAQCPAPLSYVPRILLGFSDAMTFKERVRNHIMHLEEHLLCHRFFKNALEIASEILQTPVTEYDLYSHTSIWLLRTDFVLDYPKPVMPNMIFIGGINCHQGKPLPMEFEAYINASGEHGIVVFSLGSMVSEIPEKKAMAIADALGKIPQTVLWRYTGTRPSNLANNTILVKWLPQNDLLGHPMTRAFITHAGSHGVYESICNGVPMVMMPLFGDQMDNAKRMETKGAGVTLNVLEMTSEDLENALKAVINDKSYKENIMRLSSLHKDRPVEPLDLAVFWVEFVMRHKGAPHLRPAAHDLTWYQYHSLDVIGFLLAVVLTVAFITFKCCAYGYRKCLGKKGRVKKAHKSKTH

CYP1A2 = assay: Enzyme induction assay, CYP1A2 activity in primary human hepatocytes; type: in vitro ADME; details: plated cryopreserved primary human hepatocytes, O-deethylation
rUGT1A1 = rUGT1A1 (Homo sapiens, UniProt P22309); assay: Reaction phenotyping, rUGT1A1; details: rUGT1A1, SN38 (0.5 µM)
UGT1A1 = biological target: T3, UGT1A1 (Homo sapiens, UniProt P22309); assay: Enzyme inhibition assay, UGT1A1; type: in vitro ADME; details: HLM; UGT1A1 SN38 glucuronidation; read-out: IC50
T3 construct: from tissue
T3 sequence (P22309 26-533): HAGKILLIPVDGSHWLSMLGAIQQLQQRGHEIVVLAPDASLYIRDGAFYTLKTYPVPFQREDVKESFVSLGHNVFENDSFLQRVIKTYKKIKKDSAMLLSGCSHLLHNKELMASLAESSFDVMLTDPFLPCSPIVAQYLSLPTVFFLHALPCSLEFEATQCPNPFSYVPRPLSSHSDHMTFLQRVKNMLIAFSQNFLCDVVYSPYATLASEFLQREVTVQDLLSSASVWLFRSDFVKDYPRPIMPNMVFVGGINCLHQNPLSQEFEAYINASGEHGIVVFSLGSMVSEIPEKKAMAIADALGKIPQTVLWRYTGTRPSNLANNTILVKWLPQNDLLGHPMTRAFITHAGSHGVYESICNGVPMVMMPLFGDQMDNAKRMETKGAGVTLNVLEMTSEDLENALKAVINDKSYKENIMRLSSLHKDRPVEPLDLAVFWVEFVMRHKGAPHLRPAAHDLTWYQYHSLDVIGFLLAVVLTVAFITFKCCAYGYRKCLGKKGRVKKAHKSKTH

UGT2B7 = biological target: T4, UGT2B7 (Homo sapiens, UniProt P16662); assay: Enzyme inhibition assay, UGT2B7; type: in vitro ADME; set-up: from tissue; details: HLM; UGT2B7 zidovudine glucuronidation
T4 sequence (P16662 24-529): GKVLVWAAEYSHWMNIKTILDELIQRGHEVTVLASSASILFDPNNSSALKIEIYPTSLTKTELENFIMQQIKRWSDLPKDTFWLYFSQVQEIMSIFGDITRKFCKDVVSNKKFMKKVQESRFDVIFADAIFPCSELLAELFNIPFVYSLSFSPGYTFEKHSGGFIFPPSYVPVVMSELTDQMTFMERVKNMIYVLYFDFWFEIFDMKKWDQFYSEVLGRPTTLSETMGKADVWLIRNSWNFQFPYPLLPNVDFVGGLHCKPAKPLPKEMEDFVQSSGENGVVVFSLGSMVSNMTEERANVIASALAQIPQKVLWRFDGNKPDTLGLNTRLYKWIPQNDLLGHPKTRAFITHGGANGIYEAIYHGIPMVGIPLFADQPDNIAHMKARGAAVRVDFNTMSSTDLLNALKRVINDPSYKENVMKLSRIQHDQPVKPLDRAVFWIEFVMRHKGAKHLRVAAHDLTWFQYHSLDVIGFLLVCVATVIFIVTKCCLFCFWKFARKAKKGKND

UGT1A7 = biological target: T5, UGT1A7 (Homo sapiens, UniProt Q9HAW7); assay: Enzyme inhibition assay, UGT1A7
T5 sequence (Q9HAW7 26-530): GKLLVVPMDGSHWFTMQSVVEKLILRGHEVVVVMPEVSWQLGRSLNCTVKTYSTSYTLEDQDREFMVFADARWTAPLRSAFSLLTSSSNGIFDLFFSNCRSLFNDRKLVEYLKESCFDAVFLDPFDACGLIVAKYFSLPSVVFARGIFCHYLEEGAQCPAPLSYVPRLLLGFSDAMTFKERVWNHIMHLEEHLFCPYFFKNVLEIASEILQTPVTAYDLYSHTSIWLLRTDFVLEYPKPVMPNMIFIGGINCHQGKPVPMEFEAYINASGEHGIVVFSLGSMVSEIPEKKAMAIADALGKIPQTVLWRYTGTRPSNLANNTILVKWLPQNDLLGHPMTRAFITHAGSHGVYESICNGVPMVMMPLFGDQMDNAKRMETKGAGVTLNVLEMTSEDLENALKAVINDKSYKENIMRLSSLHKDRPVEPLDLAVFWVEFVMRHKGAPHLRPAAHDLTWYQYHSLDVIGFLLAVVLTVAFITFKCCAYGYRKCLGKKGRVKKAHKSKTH

UGT1A8 = biological target: T6, UGT1A8 (Homo sapiens, UniProt Q9HAW9); assay: Enzyme inhibition assay, UGT1A8
T6 sequence (Q9HAW9 26-530): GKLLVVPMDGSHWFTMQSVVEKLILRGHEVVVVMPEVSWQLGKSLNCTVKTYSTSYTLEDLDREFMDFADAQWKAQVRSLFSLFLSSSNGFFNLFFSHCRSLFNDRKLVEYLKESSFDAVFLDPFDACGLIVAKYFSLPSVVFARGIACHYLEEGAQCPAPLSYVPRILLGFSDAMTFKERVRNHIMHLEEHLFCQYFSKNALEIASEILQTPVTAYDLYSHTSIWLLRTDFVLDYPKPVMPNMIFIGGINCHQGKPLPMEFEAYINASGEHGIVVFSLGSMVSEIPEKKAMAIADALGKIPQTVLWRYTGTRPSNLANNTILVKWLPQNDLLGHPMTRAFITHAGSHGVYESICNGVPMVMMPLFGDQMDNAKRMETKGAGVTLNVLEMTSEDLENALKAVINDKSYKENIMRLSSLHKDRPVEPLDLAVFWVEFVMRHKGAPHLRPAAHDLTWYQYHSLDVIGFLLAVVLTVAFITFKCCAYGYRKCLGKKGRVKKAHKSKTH

CYP2B6 = assay: Enzyme induction assay, CYP2B6 activity in primary human hepatocytes; details: CYP2B6 bupropion hydroxylation, DPV 303 nM, phenobarbital 1 mM
UGT1A3 = biological target: T7, UGT1A3 (Homo sapiens, UniProt P35503); assay: Reaction phenotyping, rUGT1A3; details: recombinant UGT1A3, pH 7.4
T7 sequence (P35503 29-534): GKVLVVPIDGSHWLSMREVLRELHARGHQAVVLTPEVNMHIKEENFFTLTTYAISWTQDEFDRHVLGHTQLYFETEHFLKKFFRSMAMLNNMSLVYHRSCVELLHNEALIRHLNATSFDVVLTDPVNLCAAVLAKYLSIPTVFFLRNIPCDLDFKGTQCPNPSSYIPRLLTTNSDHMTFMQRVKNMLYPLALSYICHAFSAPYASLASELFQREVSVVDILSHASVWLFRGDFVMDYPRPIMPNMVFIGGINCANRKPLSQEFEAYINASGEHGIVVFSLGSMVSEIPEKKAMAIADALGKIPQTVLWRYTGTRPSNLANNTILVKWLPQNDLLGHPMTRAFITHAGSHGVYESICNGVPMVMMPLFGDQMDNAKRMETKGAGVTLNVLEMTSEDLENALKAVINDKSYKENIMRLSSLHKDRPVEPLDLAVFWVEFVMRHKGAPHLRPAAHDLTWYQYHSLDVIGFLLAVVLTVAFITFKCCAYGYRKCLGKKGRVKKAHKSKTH

UGT1A4 = biological target: T8, UGT1A4 (Homo sapiens, UniProt P22310); assay: Enzyme inhibition assay, UGT1A4
T8 sequence (P22310 29-534): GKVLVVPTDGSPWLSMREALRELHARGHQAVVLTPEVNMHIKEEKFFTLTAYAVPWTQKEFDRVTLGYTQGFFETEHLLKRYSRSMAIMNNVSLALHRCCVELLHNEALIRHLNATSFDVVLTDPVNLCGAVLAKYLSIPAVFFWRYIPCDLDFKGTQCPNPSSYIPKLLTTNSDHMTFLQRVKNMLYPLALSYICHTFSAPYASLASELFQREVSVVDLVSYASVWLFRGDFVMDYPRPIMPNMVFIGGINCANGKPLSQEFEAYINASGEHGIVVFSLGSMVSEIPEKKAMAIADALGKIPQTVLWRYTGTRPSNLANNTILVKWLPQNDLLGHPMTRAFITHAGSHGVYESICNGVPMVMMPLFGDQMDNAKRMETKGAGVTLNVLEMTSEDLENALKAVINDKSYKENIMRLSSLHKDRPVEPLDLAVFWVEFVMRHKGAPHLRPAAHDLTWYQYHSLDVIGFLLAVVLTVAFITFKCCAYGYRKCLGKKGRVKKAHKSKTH

Sequence of CYP3A4 (P08684 whole entry): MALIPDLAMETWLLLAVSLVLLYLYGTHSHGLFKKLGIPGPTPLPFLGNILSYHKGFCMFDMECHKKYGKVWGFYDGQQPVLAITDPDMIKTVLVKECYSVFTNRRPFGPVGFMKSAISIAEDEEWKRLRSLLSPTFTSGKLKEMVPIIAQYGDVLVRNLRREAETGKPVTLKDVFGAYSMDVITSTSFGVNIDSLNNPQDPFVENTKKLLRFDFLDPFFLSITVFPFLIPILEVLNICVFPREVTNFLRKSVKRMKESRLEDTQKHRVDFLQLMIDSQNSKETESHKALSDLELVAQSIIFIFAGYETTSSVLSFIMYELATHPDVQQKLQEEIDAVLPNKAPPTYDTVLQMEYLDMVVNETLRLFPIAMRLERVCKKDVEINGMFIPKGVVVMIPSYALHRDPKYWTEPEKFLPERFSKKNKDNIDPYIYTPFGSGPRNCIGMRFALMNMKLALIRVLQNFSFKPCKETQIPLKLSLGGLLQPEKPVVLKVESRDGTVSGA

In the case of Cc1ncc2n1-c1ccc(Cl)cc1C(c1ccccc1F)=NC2 [Midazolam], the remaining at 1 h [1] is reported as 0% and the remaining at 1 h, 1 µM (CYP3A4) is reported as 4.02%.
For Cc1nc2c([nH]1)c(=O)n(C)c(=O)n2Cc1ccco1 [Furafylline], the IC50 (CYP1A1) was 4760 nM.
In the case of CCC1(c2ccccc2)C(=O)NC(=O)N(Cc2ccccc2)C1=O (single isomer, unassigned; (-)) [(-)-N-3-benzyl-phenobarbital], the IC50 (CYP2C19) is reported as 148 nM.
For O=C(O)c1cccnc1Nc1cccc(C(F)(F)F)c1 [Niflumic acid], the IC50 (UGT1A9) was 150 nM.
For COc1ccc2[nH]c([S+]([O-])Cc3ncc(C)c(OC)c3C)nc2c1 (stereo not drawn) [Omeprazole], the fold induction at 72 h, 303 nM (CYP1A2; donor HU2036, probe phenacetin (100 µM)) was 14 ± 2.43, the fold induction at 72 h, 303 nM (CYP1A2; donor HU2068, probe phenacetin (100 µM)) was 35.5 ± 2.03 and the fold induction at 72 h, 303 nM (CYP1A2; donor HU8373, probe phenacetin (100 µM)) was 32.7 ± 6.67.
For CCc1c2c(nc3ccc(O)cc13)-c1cc3c(c(=O)n1C2)COC(=O)[C@]3(O)CC [SN38], the “Known Substrate (% Remaining at 60 min)” value (rUGT1A1) was “SN38 (74.87) %”.
COC(=O)N[C@H](C(=O)N[C@@H](Cc1ccccc1)[C@@H](O)CN(Cc1ccc(-c2ccccn2)cc1)NC(=O)[C@@H](NC(=O)OC)C(C)(C)C)C(C)(C)C [Atazanavir] showed an IC50 (UGT1A1) of 110 nM.
OC(Cn1cncn1)(Cn1cncn1)c1ccc(F)cc1F [Fluconazole] showed an IC50 (UGT2B7) of 712000 nM.
In the case of O=c1cc(-c2ccc(O)c(-c3c(O)cc(O)c4c(=O)cc(-c5ccc(O)cc5)oc34)c2)oc2cc(O)cc(O)c12 [Amentoflavone], the IC50 (UGT1A7) is reported as 46.1 nM and the IC50 (UGT1A8) is reported as 5570 nM.
Compound CCC1(c2ccccc2)C(=O)NC(=O)NC1=O [Phenobarbital] has a fold induction at 72 h, 303 nM (CYP2B6; donor HU2036, over negative control) of 7.63 ± 0.82, a fold induction at 72 h, 303 nM (CYP2B6; donor HU2068, over negative control) of 6.43 ± 1.02 and a fold induction at 72 h, 303 nM (CYP2B6; donor HU8373, over negative control) of 10.7 ± 0.61.
C[C@H](CCC(=O)O)[C@H]1CC[C@H]2[C@@H]3[C@H](O)C[C@@H]4C[C@H](O)CC[C@]4(C)[C@H]3CC[C@]12C [Chenodeoxycholic acid] gave a remaining at 1 h, 2 µM (UGT1A3) of 59.4%.
Compound C[C@@H]1CC[C@@]2(OC1)O[C@H]1C[C@H]3[C@@H]4CC[C@H]5C[C@@H](O)CC[C@]5(C)[C@H]4CC(=O)[C@]3(C)[C@H]1[C@@H]2C [Hecogenin] has an IC50 (UGT1A4) of 960 nM.
